Reference: patent publication US9976141B2, “Compositions and methods for inhibiting gene expression of Hif2alpha” (Arrowhead Madison Inc., priority 2015, dated 2018)
Strand notation (5' to 3'): a small letter for the sugar, then the base; units joined by * are phosphorothioate-linked, units joined directly phosphodiester-linked; [ ] holds rarer units or linkages, { } end groups; capitals alone tell only the bases. d = 2'-deoxy (DNA); m = 2'-O-methyl; f = 2'-fluoro

System: human EPAS1 (Hif2α) cDNA in psiCHECK2 (Renilla luciferase/EPAS1 fusion mRNA) in Hep3B cells
Assay: Efficacy screen of Hif2α RNAi triggers in vitro, dual-luciferase reporter assay (1 nM and 0.1 nM)
Type: cell-based
Conditions: Hep3B cells co-transfected with EPAS1-psiCHECK2, Renilla luciferase normalized to firefly luciferase
Summary of the method: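 Hep3B cells (10,000/well) co-transfected with chemically modified siRNA triggers at 1 nM and 0.1 nM plus 25 ng EPAS1-psiCHECK2 plasmid via LipoFectamine 2000. Knockdown measured as Renilla luciferase from the EPAS1 fusion mRNA, normalized to constitutive firefly luciferase by dual-luciferase assay.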

Row | Substance | Relative Rluc-Hif2α (0.1 nM RNAi trigger) | Relative Rluc-Hif2α (1 nM RNAi trigger)
1 | 2357 (sense fGmGfUmGfUmGfAmCfAmAfUmCfCmGfAmGfCmAfAdT; antisense dTfUmGfCmUfCmGfGmAfUmUfGmUfCmAfCmAfCmCdT*dT; siRNA) [compound 2357] | 0.737 ± 0.082 | 0.435 ± 0.062
2 | 2375 (sense fCmGfGmAfUmGfGmUfCmUfUmUfCmAfCmAfCmGfAdT; antisense dTfCmGfUmGfUmGfAmAfAmGfAmCfCmAfUmCfCmGdT*dT; siRNA) [compound 2375] | 0.481 ± 0.062 | 0.305 ± 0.040
3 | 2263 (sense fAmAfUmAfGmUfCmUfGmUfGmUfGmGfCmUfAmCfAdT; antisense dTfGmUfAmGfCmCfAmCfAmCfAmGfAmCfUmAfUmUdT*dT; siRNA) [compound 2263] | 1.126 ± 0.083 | 0.875 ± 0.059
4 | 2405 (sense fUmGfUmCfAmAfCmGfUmAfAmCfGmAfUmUfUmCfAdT; antisense dTfGmAfAmAfUmCfGmUfUmAfCmGfUmUfGmAfCmAdT*dT; siRNA) [compound 2405] | 0.261 ± 0.044 | 0.138 ± 0.035
5 | 2305 (sense fGmCfCmGfGmAfAmGfCmAfAmAfGmCfAmUfCmCfAdT; antisense dTfGmGfAmUfGmCfUmUfUmGfCmUfUmCfCmGfGmCdT*dT; siRNA) [compound 2305] | 0.961 ± 0.120 | 0.992 ± 0.217
6 | 2415 (sense fUmGfUmAfUmGfGmGfAmGfCmUfUmAfAmCfUmUfAdT; antisense dTfAmAfGmUfUmAfAmGfCmUfCmCfCmAfUmAfCmAdT*dT; siRNA) [compound 2415] | 0.180 ± 0.097 | 0.119 ± 0.015
7 | 2330 (sense fGmAfUmAfUmGfAmCfUmGfUmGfAmGfGmUfGmAfAdT; antisense dTfUmCfAmCfCmUfCmAfCmAfGmUfCmAfUmAfUmCdT*dT; siRNA) [compound 2330] | 1.097 ± 0.416 | 0.464 ± 0.035
8 | 2338 (sense fAmGfGmGfUmCfAmAfCmUfCmCfAmAfCmGfUmAfAdT; antisense dTfUmAfCmGfUmUfGmGfAmGfUmUfGmAfCmCfCmUdT*dT; siRNA) [compound 2338] | 0.743 ± 0.070 | 0.334 ± 0.091
9 | 2403 (sense fCmCfUmGfUmCfAmAfCmGfUmAfAmCfGmAfUmUfAdT; antisense dTfAmAfUmCfGmUfUmAfCmGfUmUfGmAfCmAfGmGdT*dT; siRNA) [compound 2403] | 0.930 ± 0.132 | 0.568 ± 0.106
10 | 2293 (sense fUmGfCmUfCmCfAmCfGmCfCmCfAmAfUmAfGmCfAdT; antisense dTfGmCfUmAfUmUfGmGfGmCfGmUfGmGfAmGfCmAdT*dT; siRNA) [compound 2293] | 1.010 ± 0.045 | 0.925 ± 0.126
11 | 2240 (sense fCmGfUmCfUmGfAmAfCmGfUmCfUmCfAmAfAmGfAdT; antisense dTfCmUfUmUfGmAfGmAfCmGfUmUfCmAfGmAfCmGdT*dT; siRNA) [compound 2240] | 0.841 ± 0.048 | 0.845 ± 0.052
12 | 2276 (sense fGmUfAmAfGmUfGmGfCmCfAmGfUmAfCmCfGmGfAdT; antisense dTfCmCfGmGfUmAfCmUfGmGfCmCfAmCfUmUfAmCdT*dT; siRNA) [compound 2276] | 0.543 ± 0.029 | 0.330 ± 0.080
13 | 2233 (sense fUmCfCmGfAmCfUmCfCmCfAmGfCmAfUmUfCmGfAdT; antisense dTfCmGfAmAfUmGfCmUfGmGfGmAfGmUfCmGfGmAdT*dT; siRNA) [compound 2233] | 0.913 ± 0.019 | 0.862 ± 0.125
14 | 2325 (sense fGmAfCmUfAmCfAmGfCmCfUmGfUmCfGmUfCmAfAdT; antisense dTfUmGfAmCfGmAfCmAfGmGfCmUfGmUfAmGfUmCdT*dT; siRNA) [compound 2325] | 1.304 ± 0.134 | 1.379 ± 0.275
15 | 2245 (sense fAmCfAmCfAmGfGmUfGmGfAmGfCmUfAmAfCmAfAdT; antisense dTfUmGfUmUfAmGfCmUfCmCfAmCfCmUfGmUfGmUdT*dT; siRNA) [compound 2245] | 0.761 ± 0.039 | 0.727 ± 0.066
16 | 2406 (sense fUmCfAmAfCmGfUmAfAmCfGmAfUmUfUmCfAmUfAdT; antisense dTfAmUfGmAfAmAfUmCfGmUfUmAfCmGfUmUfGmAdT*dT; siRNA) [compound 2406] | 0.241 ± 0.022 | 0.168 ± 0.044

Row | Substance | Relative Rluc-Hif2α (0.1 nM RNAi trigger) | Relative Rluc-Hif2α (1 nM RNAi trigger)
17 | 2238 (sense fUmCfGmGfCmGfUmCfUmGfAmAfCmGfUmCfUmCfAdT; antisense dTfGmAfGmAfCmGfUmUfCmAfGmAfCmGfCmCfGmAdT*dT; siRNA) [compound 2238] | 0.208 ± 0.023 | 0.148 ± 0.024
18 | 2381 (sense fAmCfGmAfCmCfUmUfGmGfAmGfCmCfCmCfGmUfAdT; antisense dTfAmCfGmGfGmGfCmUfCmCfAmAfGmGfUmCfGmUdT*dT; siRNA) [compound 2381] | 0.756 ± 0.109 | 1.063 ± 0.191
19 | 2232 (sense fCmUfCmCfGmAfCmUfCmCfUmUfCmCfGmAfCmUfAdT; antisense dTfAmGfUmCfGmGfAmAfGmGfAmGfUmCfGmGfAmGdT*dT; siRNA) [compound 2232] | 0.684 ± 0.061 | 0.468 ± 0.032
20 | 2332 (sense fUmAfCmAfAmGfAmUfGmGfAmCfUmUfAmCfCmUfAdT; antisense dTfAmGfGmUfAmAfGmUfCmCfAmUfCmUfUmGfUmAdT*dT; siRNA) [compound 2332] | 1.174 ± 0.027 | 0.871 ± 0.235
21 | 2301 (sense fAmUfCmUfUmCfUmUfUmGfAmUfGmCfCmGfGmAfAdT; antisense dTfUmCfCmGfGmCfAmUfCmAfAmAfGmAfAmGfAmUdT*dT; siRNA) [compound 2301] | 0.558 ± 0.034 | 0.423 ± 0.102
22 | 2360 (sense fGmGfGmAfGmCfAmCfUmGfCmGfCmGfCmUfAmUfAdT; antisense dTfAmUfAmGfCmGfCmGfCmAfGmUfGmCfUmCfCmCdT*dT; siRNA) [compound 2360] | 1.102 ± 0.119 | 0.962 ± 0.167
23 | 2344 (sense fUmCfCmAfAmCfGmUfAmUfGmUfGmGfUmUfAmUfAdT; antisense dTfAmUfAmAfCmCfAmCfAmUfAmCfGmUfUmGfGmAdT*dT; siRNA) [compound 2344] | 0.570 ± 0.071 | 0.276 ± 0.033
24 | 2241 (sense fAmAfAmAfGmGfAmGfUmAfGmCfUmCfGmGfAmGfAdT; antisense dTfCmUfCmCfGmAfGmCfUmAfCmUfCmCfUmUfUmUdT*dT; siRNA) [compound 2241] | 0.385 ± 0.028 | 0.270 ± 0.068
25 | 2249 (sense fGmGfAmCfAmUfAmGfUmAfUmCfUmUfUmGfAmCfAdT; antisense dTfGmUfCmAfAmAfGmAfUmAfCmUfAmUfGmUfCmCdT*dT; siRNA) [compound 2249] | 0.303 ± 0.042 | 0.190 ± 0.028
26 | 2377 (sense fUmGfGmUfCmUfUmUfCmAfCmAfCmGfGmCfAmCfAdT; antisense dTfGmUfGmCfCmGfUmGfUmGfAmAfAmGfAmCfCmAdT*dT; siRNA) [compound 2377] | 0.900 ± 0.189 | 0.958 ± 0.189
27 | 2374 (sense fGmCfUmAfUmGfUmGfAmCfUmCfGmGfAmUfGmGfAdT; antisense dTfCmCfAmUfCmCfGmAfGmUfCmAfCmAfUmAfGmCdT*dT; siRNA) [compound 2374] | 0.355 ± 0.020 | 0.192 ± 0.014
28 | 2318 (sense fGmGfUmAfGmCfCmCfUmCfUmCfCmAfAmCfAmAfAdT; antisense dTfUmUfGmUfUmGfGmAfGmAfGmGfGmCfUmAfCmCdT*dT; siRNA) [compound 2318] | 0.885 ± 0.370 | 0.780 ± 0.103
29 | 2266 (sense fCmUfGmAfUmUfGmGfUmUfAmCfCmAfCmCfCmUfAdT; antisense dTfAmGfGmGfUmGfGmUfAmAfCmCfAmAfUmCfAmGdT*dT; siRNA) [compound 2266] | 0.808 ± 0.062 | 0.368 ± 0.046
30 | 2372 (sense fGmUfUmGfCmUfAmGfCmCfCmUfUmCfAmAfGmUfAdT; antisense dTfAmCfUmUfGmAfAmGfGmGfCmUfAmGfCmAfAmCdT*dT; siRNA) [compound 2372] | 0.831 ± 0.103 | 0.514 ± 0.044
31 | 2321 (sense fUmUfGmAfUmGfCmCfGmGfAmCfAmAfGmCfCmAfAdT; antisense dTfUmGfGmCfUmUfGmUfCmCfGmGfCmAfUmCfAmAdT*dT; siRNA) [compound 2321] | 0.561 ± 0.043 | 0.665 ± 0.033
32 | 2362 (sense fAmGfCmAfCmUfGmCfGmCfGmCfUmAfUmCfCmCfAdT; antisense dTfGmGfGmAfUmAfGmCfGmCfGmCfAmGfUmGfCmUdT*dT; siRNA) [compound 2362] | 0.673 ± 0.089 | 0.454 ± 0.069
